Experimental data: patent US20220024877A1 (Kansas State University Research Foundation, priority 2018, published 2022)
Converted amounts (≈) assume the structure as drawn. Like-named read-outs stand apart in the source and are kept apart here.

Legend:
[1] = Copper(I) binding constant of NNSN compounds (1H-NMR titration with CuBr in D4-methanol); conditions: for Binding constant: Cu-NNSN 1:1 stoichiometry; for Copper (I) binding constant: Table I
Method: They were recorded in D4-methanol by means of adding aliquots of a 5 mmol CuBr stock solution in D4-methanol to the 1 mmol NNSN-compound, resulting in 0, 0.5, 1.0, 2.0 and 3.0 mmol CuBr concentration in D4-methanol.

MRSA = experiment: In vitro activity against S. aureus (MRSA), MIC with or without Cu supplementation; conditions: for MIC: Staphylococcus aureus, MRSA; for MIC* against MRSA: kinetic data (determined from bacteria growth experiments), resulting in IC50 values similar to MIC values
Method: S. aureus was inoculated in Mueller-Hinton medium from frozen stocks and grown for 2-4 h (until reaching an OD600˜1) at 37° C. while shaking. Once the OD was reached, bacteria were harvested and diluted in Phenolred-free RPMI1640 medium to an OD of 0.01 (=inoculum). Test compounds where diluted from frozen DMSO-stocks were diluted in Phenolred-free RPMI1640 medium with or without Cu supplementation (100 μM) and serially diluted in 96-well plates in the same medium to achieve a final concentration of between 0.08 and 10 μM after addition of an equal volume of inoculum. Medium-only controls and growth controls in the absence of test compounds were also included. The plates were placed in sealed bags and incubated at 37° C. After 15-20 h incubation time, an OD600 reading was taken and analyzed. […] If kinetic data were required, resazurin was added to each well. Using a plate reader with incubation chamber, resazurin conversion was monitored by fluorescence reading every 20 min for up to 24 h. After normalizing the data to respective controls, the MIC was determined using the same definition as above.

[2] = Therapeutic index (approx.)
[3] = log P (octanol/water partition coefficient); assay type: physicochemical
S. aureus strain 1471 = experiment: Drop assay against S. aureus strain 1471 with or without copper
Method: For the drop assay, bacteria were grown in wells with or without copper, using a 1:2 drug titration starting at 10 μM.

[4] = test system: Avirulent Mtb strain mc26206 (H37Rv ΔpanCD ΔleuCD, double auxotroph); experiment: microbe, parasite or virus in culture; assay type: cell-based; conditions: Mycobacterium tuberculosis
[5] = test system: multi-drug resistant Gram-positive bacteria; conditions: current antibiotics, background section; cited from earlier work
[6] = read-out: MIC* against MRSA (μM), kinetic data (determined from bacteria growth experiments), resulting in IC50 values similar to MIC values
[7] = Staphylococcus aureus, MRSA, read-out: MIC against MRSA (clinical isolate 1471)
[8] = Staphylococcus aureus, 1471, read-out: MIC: +50 μM Cu

## S=C(Nc1ccc(Cl)cc1)n1cccn1 [listing 1 of 2 here]
[1]
  Binding constant: 2100 M⁻¹
  Copper (I) binding constant: 2100 M⁻¹
MRSA; organism not named there
  MIC: 5 µM (≈ 1.19 µg/mL)
MRSA
  MIC* against MRSA: 5.0 µM (≈ 1.19 µg/mL)

## S=C(Nc1ccc(Cl)cc1)n1cccn1 [listing 2 of 2 here]
[1]
  Copper (I) binding constant: 1434 M⁻¹
MRSA
  MIC* against MRSA: 1.25 µM (≈ 0.297 µg/mL)

## CC(C)(C)n1ccc(NC(=O)Nc2ccc(Cl)cc2)n1 [SB10, 1-(1-(tert-butyl)-1H-pyrazol-3-yl)-3-(4-chlorophenyl)urea]
[1]
  Binding constant: 1786.13 M⁻¹

## Cn1ccc(NC(=O)Nc2ccc(Cl)cc2)n1 [SB11, 1-(4-chlorophenyl)-3-(1-methyl-1H-pyrazol-3-yl)urea]
[1]
  Binding constant: < 100 M⁻¹

## S=C(Nc1ccc(Cl)cc1)n1ccnn1 [SB18]
[1]
  Binding constant: < 1000 M⁻¹

## FC(F)(F)c1ccn(C(=S)Nc2ccc(Cl)cc2)n1 [SB20]
[1]
  Binding constant: < 1000 M⁻¹

## O=[N+]([O-])c1ccc(NC(=S)n2cccn2)cc1 [SB21, N-(4-nitrophenyl)-1H-pyrazole-1-carbothioamide]
[1]
  Binding constant: 26063 M⁻¹
MRSA; organism not named there
  MIC: 10 µM (≈ 2.48 µg/mL)

## COc1ccc(NC(=S)n2cccn2)cc1 [SB22, N-(4-methoxyphenyl)-1H-pyrazole-1-carbothioamide]
[2]
  Therapeutic index (approx.): >2
[1]
  Binding constant: 3975 M⁻¹
  Copper (I) binding constant: 3975 M⁻¹
MRSA; [6]
  MIC: 10 µM (≈ 2.33 µg/mL)
MRSA; organism not named there
  MIC: 10 µM (≈ 2.33 µg/mL)

## Fc1ccc(NC(=S)n2cccn2)cc1 [SB23, N-(4-fluorophenyl)-1H-pyrazole-1-carbothioamide]
[1]
  Binding constant: 22057 M⁻¹
MRSA; organism not named there
  MIC: > 10 µM

## Cc1ccc(NC(=S)n2cccn2)cc1 [SB25, N-(p-tolyl)-1H-pyrazole-1-carbothioamide]
[1]
  Copper (I) binding constant: 1635 M⁻¹
MRSA; [6]
  MIC: 5 µM (≈ 1.09 µg/mL)

## S=C(Nc1ccc(Br)cc1)n1cccn1 [SB26, N-(4-bromophenyl)-1H-pyrazole-1-carbothioamide]
[1]
  Copper (I) binding constant: 1550 M⁻¹
MRSA; [6]
  MIC: 10 µM (≈ 2.82 µg/mL)

## O=[N+]([O-])c1ccc(NC(=S)Nc2cc[nH]n2)cc1 [SB28, 1-(4-nitrophenyl)-3-(1H-pyrazol-3-yl)thiourea]
[1]
  Binding constant: 1200 M⁻¹
MRSA; read-out: MIC (MRSA), MRSA
  MIC: 5 µM (≈ 1.32 µg/mL)

## Cn1ccc(NC(=S)Nc2ccc(Cl)cc2)n1 [SB29]
[1]
  Binding constant: 1150 M⁻¹

## O=[N+]([O-])c1cnn(C(=S)Nc2ccc(Cl)cc2)c1 [SB30, N-(4-chlorophenyl)-4-nitro-1H-pyrazole-1-carbothioamide]
[1]
  Binding constant: 1100 M⁻¹

## COc1ccc(NC(=S)n2ccc(N)n2)cc1 [SB31, 3-amino-N-(4-methoxyphenyl)-1H-pyrazole-1-carbothioamide]
[1]
  Copper (I) binding constant: 5452 M⁻¹
MRSA; [6]
  MIC: 10 µM (≈ 2.48 µg/mL)

## Cc1ccc(NC(=S)n2ccc(N)n2)cc1 [SB32, 3-amino-N-(p-tolyl)-1H-pyrazole-1-carbothioamide]
[1]
  Copper (I) binding constant: 6140 M⁻¹
MRSA; [6]
  MIC: 2.5 µM (≈ 0.581 µg/mL)

## Nc1ccn(C(=S)Nc2ccc(Br)cc2)n1 [SB33, 3-amino-N-(4-bromophenyl)-1H-pyrazole-1-carbothioamide]
[1]
  Copper (I) binding constant: 5830 M⁻¹
MRSA; [6]
  MIC: 1.25 µM (≈ 0.371 µg/mL)

## Nc1ccn(C(=S)Nc2ccc(F)cc2)n1 [SB37, 3-amino-N-(4-fluorophenyl)-1H-pyrazole-1-carbothioamide]
[1]
  Copper (I) binding constant: 5540 M⁻¹
MRSA; [6]
  MIC: 10 µM (≈ 2.36 µg/mL)

## O=[N+]([O-])c1cnn(C(=S)Nc2ccc(Cl)cc2)c1 [SB38]
[1]
  Binding constant: < 100 M⁻¹

## Nc1cnn(C(=S)Nc2ccc(Cl)cc2)c1 [SB39]
[1]
  Binding constant: 2200 M⁻¹

## CN(C)c1ccn(C(=S)Nc2ccc(Cl)cc2)n1 [SB40, N-(4-chlorophenyl)-3-(dimethylamino)-1H-pyrazole-1-carbothioamide]
[1]
  Copper (I) binding constant: 58500 M⁻¹
MRSA; [6]
  MIC: 0.6 µM (≈ 0.168 µg/mL)

## S=C(Nc1ccc(Cl)cc1)n1ccc(OCc2ccccc2)n1 [SB44, 3-(benzyloxy)-N-(4-chlorophenyl)-1H-pyrazole-1-carbothioamide]
[3]
  logP: 4.74
S. aureus strain 1471; [7]
  MIC: 0.15 µM (≈ 0.0516 µg/mL)
MRSA; [6]
  MIC: 0.15 µM (≈ 0.0516 µg/mL)

## CN(C(=S)Nc1ccc(Cl)cc1)c1ccn(C(=S)Nc2ccc(Cl)cc2)n1 [SB45, N-(4-chlorophenyl)-3-(3-(4-chlorophenyl)-1-methylthioureido)-1H-pyrazole-1-carbothioamide]
[4]; read-out: IC50 +Cu
  IC50: 2 µM
[4]; read-out: IC50 −Cu
  IC50: > 50 µM
[4]; read-out: MIC90 +Cu
  MIC90: 3.5 µM (≈ 1.53 µg/mL)
[4]; read-out: MIC90 −Cu
  MIC90: > 100 µM
MRSA; [6]
  MIC: < 0.016 µM

## S=C(Nc1ccccc1Cl)n1cccn1 [SB46, N-(2-chlorophenyl)-1H-pyrazole-1-carbothioamide]
[4]; read-out: IC50 +Cu
  IC50: 10 µM
[4]; read-out: IC50 −Cu
  IC50: > 100 µM
[4]; read-out: MIC90 +Cu
  MIC90: > 100 µM
[4]; read-out: MIC90 −Cu
  MIC90: > 100 µM
MRSA; [6]
  MIC: 0.3 µM (≈ 0.0713 µg/mL)

## Cc1nn(C(=S)Nc2ccc(Cl)cc2)cc1[N+](=O)[O-] [SB47, N-(4-chlorophenyl)-3-methyl-4-nitro-1H-pyrazole-1-carbothioamide]
MRSA; [6]
  MIC: 2.5 µM (≈ 0.742 µg/mL)

## Nc1ccn(C(=S)Nc2ccccc2Cl)n1 [SB49, 3-amino-N-(2-chlorophenyl)-1H-pyrazole-1-carbothioamide]
MRSA; [6]
  MIC: 0.6 µM (≈ 0.152 µg/mL)

## Nc1ccn(C(=S)Nc2cccc(Cl)c2)n1 [SB50, 3-amino-N-(3-chlorophenyl)-1H-pyrazole-1-carbothioamide]
MRSA; [6]
  MIC: 0.15 µM (≈ 0.0379 µg/mL)

## S=C(Nc1cccc(Cl)c1)n1cccn1 [SB52, N-(3-chlorophenyl)-1H-pyrazole-1-carbothioamide]
MRSA; [6]
  MIC: 2.5 µM (≈ 0.594 µg/mL)

## S=C(Nc1ccn(C(=S)Nc2ccccc2Cl)n1)Nc1ccccc1Cl [SB53, N-(2-chlorophenyl)-3-(3-(2-chlorophenyl)thioureido)-1H-pyrazole-1-carbothioamide]
MRSA; [6]
  MIC: 0.3 µM (≈ 0.127 µg/mL)

## CN(C(=S)Nc1cccc(Cl)c1)c1ccn(C(=S)Nc2cccc(Cl)c2)n1 [SB54, N-(3-chlorophenyl)-3-(3-(3-chlorophenyl)-1-methylthioureido)-1H-pyrazole-1-carbothioamide]
[3]
  logP: 5.9
S. aureus strain 1471; [8]
  MIC: 0.15 µM (≈ 0.0655 µg/mL)
S. aureus strain 1471; [7]
  MIC: 0.15 µM (≈ 0.0655 µg/mL)

## CN(C(=S)Nc1ccccc1Cl)c1ccn(C(=S)Nc2ccccc2Cl)n1 [SB55, N-(2-chlorophenyl)-3-(3-(2-chlorophenyl)-1-methylthioureido)-1H-pyrazole-1-carbothioamide]
S. aureus strain 1471; [8]
  MIC: 10 µM (≈ 4.36 µg/mL)

## O=[N+]([O-])c1cnn(C(=S)Nc2ccccc2Cl)c1 [SB56, N-(2-chlorophenyl)-4-nitro-1H-pyrazole-1-carbothioamide]
S. aureus strain 1471; [8]
  MIC: 5 µM (≈ 1.41 µg/mL)

## S=C(Nc1cccc(Cl)c1)Nc1ccn(C(=S)Nc2cccc(Cl)c2)n1 [SB57, N-(3-chlorophenyl)-3-(3-(3-chlorophenyl)thioureido)-1H-pyrazole-1-carbothioamide]
S. aureus strain 1471; [8]
  MIC: 0.6 µM (≈ 0.253 µg/mL)

## O=[N+]([O-])c1cnn(C(=S)Nc2cccc(Cl)c2)c1 [SB59, N-(3-chlorophenyl)-4-nitro-1H-pyrazole-1-carbothioamide]
S. aureus strain 1471; [8]
  MIC: 2.5 µM (≈ 0.707 µg/mL)

## Cc1ccn(C(=S)Nc2ccccc2Cl)n1 [SB60, N-(2-chlorophenyl)-3-methyl-1H-pyrazole-1-carbothioamide]
S. aureus strain 1471; [8]
  MIC: 1.25 µM (≈ 0.315 µg/mL)

## Nc1cnn(C(=S)NCc2ccccc2Cl)c1 [SB62, 4-amino-N-(2-chlorobenzyl)-1H-pyrazole-1-carbothioamide]
S. aureus strain 1471; [8]
  MIC: 5 µM (≈ 1.33 µg/mL)

## O=[N+]([O-])c1ccc(COc2ccn(C(=S)Nc3ccc(Cl)cc3)n2)cc1 [SB63, N-(4-chlorophenyl)-3-((4-nitrobenzyl)oxy)-1H-pyrazole-1-carbothioamide]
MRSA; organism not named there
  MIC: > 10 µM

## S=C(Nc1ccccc1Cl)n1ccc(OCc2ccccc2)n1 [SB64, 3-(benzyloxy)-N-(2-chlorophenyl)-1H-pyrazole-1-carbothioamide]
[4]; read-out: IC50 +Cu
  IC50: 0.8 µM
[4]; read-out: IC50 −Cu
  IC50: > 100 µM
[4]; read-out: MIC90 +Cu
  MIC90: 1.6 µM (≈ 0.55 µg/mL)
[4]; read-out: MIC90 −Cu
  MIC90: > 100 µM

## S=C(Nc1ccc(Cl)cc1)n1cc(Br)cn1 [SB68, 4-bromo-N-(4-chlorophenyl)-1H-pyrazole-1-carbothioamide]
MRSA; organism not named there
  MIC: 10 µM (≈ 3.17 µg/mL)

## Cc1cccc(C)c1NC(=S)n1cccn1 [SB71, N-(2,6-dimethylphenyl)-1H-pyrazole-1-carbothioamide]
MRSA; organism not named there
  MIC: 0.6 µM (≈ 0.139 µg/mL)

## Cc1ccn(C(=S)Nc2c(C)cccc2C)n1 [SB72, N-(2,6-dimethylphenyl)-3-methyl-1H-pyrazole-1-carbothioamide]
MRSA; organism not named there
  MIC: 0.6 µM (≈ 0.147 µg/mL)

## COC(=O)c1ccn(C(=S)Nc2ccccc2Cl)n1 [SB73]
[1]
  Copper (I) binding constant: 985.27 M⁻¹
MRSA; [6]
  MIC: 5 µM (≈ 1.48 µg/mL)

## COC(=O)c1ccn(C(=S)Nc2cccc(Cl)c2)n1 [SB74, Methyl 1-((3-chlorophenyl)carbamothioyl)-1H-pyrazole-3-carboxylate]
[1]
  Copper (I) binding constant: 1127.86 M⁻¹
MRSA; [6]
  MIC: 2.5 µM (≈ 0.739 µg/mL)

## CCOC(=O)c1ccn(C(=S)Nc2ccc(Cl)cc2)n1 [SB77]
[1]
  Copper (I) binding constant: 1580.08 M⁻¹
MRSA; [6]
  MIC: 0.6 µM (≈ 0.186 µg/mL)

## Nc1ccn(C(=S)Nc2ccc(N=C=S)cc2)n1 [SB79, 3-amino-N-(4-isothiocyanatophenyl)-1H-pyrazole-1-carbothioamide]
[4]; read-out: IC50 +Cu
  IC50: > 100 µM
[4]; read-out: IC50 −Cu
  IC50: > 100 µM
[4]; read-out: MIC90 +Cu
  MIC90: > 100 µM
[4]; read-out: MIC90 −Cu
  MIC90: > 100 µM

## CN[C@H](CC(C)C)C(=O)N[C@H]1C(=O)N[C@@H](CC(N)=O)C(=O)N[C@H]2C(=O)N[C@H]3C(=O)N[C@H](C(=O)N[C@H](C(=O)O)c4cc(O)cc(O)c4-c4cc3ccc4O)[C@H](O)c3ccc(c(Cl)c3)Oc3cc2cc(c3O[C@@H]2O[C@H](CO)[C@@H](O)[C@H](O)[C@H]2O[C@H]2C[C@](C)(N)[C@H](O)[C@H](C)O2)Oc2ccc(cc2Cl)[C@H]1O [Vancomycin]
[5]
  minimum inhibitory concentrations (MICs): 2.2 µM (≈ 3.19 µg/mL)

## Daptinomycin
[5]
  minimum inhibitory concentrations (MICs): 0.6 µM

## Teicoplanin
[5]
  minimum inhibitory concentrations (MICs): 0.8 to 1.0 µM
